Test results from ChEMBL document CHEMBL1201862, “PubChem BioAssay data set” (2004).
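Briefly, cells in 96-well plates were exposed to five compound concentrations for 48 h, and endpoints were estimated by linear interpolation. Here, GI50 denotes the concentration required for 50% inhibition of growth.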 Active and inactive are the calls of the source. Cut-off read from the data, not from the text of the source: active = GI50 up to about 1.1 µM and inactive = higher.

Key:
Assay in all cases: NCI-60 cell line screen, 48 h
RPMI-8226 = test system: RPMI-8226
HCT-15 = test system: HCT-15
SNB-19 = test system: SNB-19
A498 = test system: A498
HT-29 = test system: HT-29
OVCAR-5 = test system: OVCAR-5
PC-3 = test system: PC-3
SK-OV-3 = test system: SK-OV-3
KM12 = test system: KM12
OVCAR-8 = test system: OVCAR-8
MDA-MB-231 = test system: MDA-MB-231
M14 = test system: M14
MDA-MB-435 = test system: MDA-MB-435
NCI-H460 = test system: NCI-H460
DU-145 = test system: DU-145
ACHN = test system: ACHN
NCI/ADR-RES = test system: NCI/ADR-RES
T47D = test system: T47D
OVCAR-3 = test system: OVCAR-3
SF-295 = test system: SF-295
LOX IMVI = test system: LOX IMVI
HOP-62 = test system: HOP-62
HCC 2998 = test system: HCC 2998
HOP-92 = test system: HOP-92
HL-60 = test system: HL-60
SW-620 = test system: SW-620
TK-10 = test system: TK-10
MCF7 = test system: MCF7
Hs-578T = test system: Hs-578T
MDA-N = test system: MDA-N
MOLT-4 = test system: MOLT-4
SF-268 = test system: SF-268
UO-31 = test system: UO-31
IGROV-1 = test system: IGROV-1
COLO 205 = test system: COLO 205
BT-549 = test system: BT-549
SNB-75 = test system: SNB-75
CAKI-1 = test system: CAKI-1
U-251 = test system: U-251
SK-MEL-2 = test system: SK-MEL-2
HCT-116 = test system: HCT-116
RXF 393 = test system: RXF 393
K562 = test system: K562
SK-MEL-5 = test system: SK-MEL-5
UACC-257 = test system: UACC-257
NCI-H522 = test system: NCI-H522
CCRF-CEM = test system: CCRF-CEM
Malme-3M = test system: Malme-3M
A549 = test system: A549
EKVX = test system: EKVX
SN12C = test system: SN12C
786-0 = test system: 786-0
SF-539 = test system: SF-539
SR = test system: SR
UACC-62 = test system: UACC-62
NCI-H23 = test system: NCI-H23
NCI-H226 = test system: NCI-H226
OVCAR-4 = test system: OVCAR-4
SK-MEL-28 = test system: SK-MEL-28

For CCCCc1ccc(Nc2nc(S)c3ncn(COCCO)c3n2)cc1, the GI50 (RPMI-8226) was 21.3 µM (inactive), the GI50 (HCT-15) was greater than 100 µM and the GI50 (SNB-19) was 31.2 µM (inactive). The GI50 (A498) was > 100 µM (inactive), the GI50 (HT-29) was 50.5 µM (inactive) and the GI50 (OVCAR-5) was 86.5 µM (inactive). The GI50 (PC-3) was 32.9 µM (inactive), the GI50 (SK-OV-3) was > 100 µM (inactive) and the GI50 (KM12) was 38 µM (inactive). The GI50 (OVCAR-8) was 45.4 µM (inactive), the GI50 (MDA-MB-231) was 15.4 µM (inactive) and the GI50 (M14) was 44.4 µM (inactive). For the same compound, the GI50 (MDA-MB-435) was 57.4 µM (inactive), the GI50 (NCI-H460) was 41.5 µM (inactive) and the GI50 (DU-145) was 56.9 µM (inactive). For the same compound, the GI50 (ACHN) was 43.1 µM (inactive), the GI50 (NCI/ADR-RES) was > 100 µM (inactive) and the GI50 (T47D) was 11.6 µM (inactive). The GI50 (OVCAR-3) was 21 µM (inactive), the GI50 (SF-295) was 64.7 µM (inactive) and the GI50 (LOX IMVI) was 27.4 µM (inactive). For the same compound, the GI50 (HOP-62) was 31 µM (inactive), the GI50 (HCC 2998) was 36.8 µM (inactive) and the GI50 (HOP-92) was 27.4 µM (inactive). For the same compound, the GI50 (HL-60) was 25.2 µM (inactive), the GI50 (SW-620) was 69 µM (inactive) and the GI50 (TK-10) was 66.2 µM (inactive). For the same compound, the GI50 (MCF7) was 24.2 µM (inactive), the GI50 (Hs-578T) was 36.3 µM (inactive) and the GI50 (MDA-N) was 41.9 µM (inactive). For the same compound, the GI50 (MOLT-4) was 33.5 µM (inactive), the GI50 (SF-268) was > 10 µM (inactive) and the GI50 (UO-31) was > 100 µM (inactive). The GI50 (IGROV-1) was 36 µM (inactive), the GI50 (COLO 205) was 20.6 µM (inactive) and the GI50 (BT-549) was 56.9 µM (inactive). The GI50 (SNB-75) was 41 µM (inactive), the GI50 (CAKI-1) was > 100 µM (inactive) and the GI50 (U-251) was 35 µM (inactive). The GI50 (SK-MEL-2) was 23.4 µM (inactive), the GI50 (HCT-116) was 65 µM (inactive) and the GI50 (RXF 393) was 56 µM (inactive). For the same compound, the GI50 (K562) was 15.5 µM (inactive), the GI50 (SK-MEL-5) was 62.1 µM (inactive) and the GI50 (UACC-257) was 30.4 µM (inactive). The GI50 (NCI-H522) was 20.9 µM (inactive), the GI50 (CCRF-CEM) was 25.7 µM (inactive) and the GI50 (Malme-3M) was 23.3 µM (inactive). For the same compound, the GI50 (A549) was > 100 µM (inactive), the GI50 (EKVX) was 60.5 µM (inactive) and the GI50 (SN12C) was 39.7 µM (inactive). The GI50 (786-0) was > 100 µM (inactive), the GI50 (SF-539) was > 100 µM (inactive) and the GI50 (SR) was 24 µM (inactive). The GI50 (UACC-62) was 41.4 µM (inactive), the GI50 (NCI-H23) was 34.4 µM (inactive) and the GI50 (NCI-H226) was 88.7 µM (inactive). The GI50 (OVCAR-4) was 45.4 µM (inactive).
With c1ccc(-c2c3c(nc4c2CC[C@H]4NC2=NCCN2)[C@@H](NC2=NCCN2)CC3)cc1 the GI50 (HCT-15) was greater than 100 µM, the GI50 (A498) was > 100 µM (inactive) and the GI50 (HT-29) was > 100 µM (inactive). For the same compound, the GI50 (OVCAR-5) was > 100 µM (inactive), the GI50 (PC-3) was 98.2 µM (inactive) and the GI50 (SK-OV-3) was > 100 µM (inactive). For the same compound, the GI50 (KM12) was > 100 µM (inactive), the GI50 (OVCAR-8) was > 100 µM (inactive) and the GI50 (MDA-MB-231) was > 100 µM (inactive). For the same compound, the GI50 (M14) was > 100 µM (inactive), the GI50 (MDA-MB-435) was > 100 µM (inactive) and the GI50 (NCI-H460) was 29.2 µM (inactive). For the same compound, the GI50 (DU-145) was > 100 µM (inactive), the GI50 (ACHN) was > 100 µM (inactive) and the GI50 (NCI/ADR-RES) was > 100 µM (inactive). For the same compound, the GI50 (T47D) was > 100 µM (inactive), the GI50 (OVCAR-3) was 65.8 µM (inactive) and the GI50 (SF-295) was > 100 µM (inactive). The GI50 (LOX IMVI) was 59 µM (inactive), the GI50 (HOP-62) was > 100 µM (inactive) and the GI50 (HCC 2998) was 27 µM (inactive). The GI50 (HOP-92) was 20.7 µM (inactive), the GI50 (HL-60) was 11.2 µM (inactive) and the GI50 (SW-620) was > 100 µM (inactive). The GI50 (TK-10) was > 100 µM (inactive), the GI50 (MCF7) was > 100 µM (inactive) and the GI50 (Hs-578T) was > 100 µM (inactive). For the same compound, the GI50 (MDA-N) was > 100 µM (inactive), the GI50 (MOLT-4) was 56.2 µM (inactive) and the GI50 (SF-268) was 63.4 µM (inactive). For the same compound, the GI50 (UO-31) was > 100 µM (inactive), the GI50 (IGROV-1) was 40 µM (inactive) and the GI50 (COLO 205) was > 100 µM (inactive). The GI50 (BT-549) was > 40.3 µM (inactive), the GI50 (SNB-75) was 58.1 µM (inactive) and the GI50 (CAKI-1) was > 100 µM (inactive). For the same compound, the GI50 (U-251) was 9.31 µM (inactive), the GI50 (SK-MEL-2) was > 100 µM (inactive) and the GI50 (HCT-116) was 48.5 µM (inactive). The GI50 (RXF 393) was > 100 µM (inactive), the GI50 (K562) was > 100 µM (inactive) and the GI50 (SK-MEL-28) was > 100 µM (inactive). For the same compound, the GI50 (SK-MEL-5) was > 100 µM (inactive), the GI50 (UACC-257) was > 90.6 µM (inactive) and the GI50 (NCI-H522) was > 100 µM (inactive). The GI50 (CCRF-CEM) was > 100 µM (inactive), the GI50 (Malme-3M) was > 100 µM (inactive) and the GI50 (A549) was > 87.9 µM (inactive). For the same compound, the GI50 (EKVX) was > 100 µM (inactive), the GI50 (SN12C) was > 100 µM (inactive) and the GI50 (786-0) was > 100 µM (inactive). For the same compound, the GI50 (SF-539) was 27.4 µM (inactive), the GI50 (SR) was > 100 µM (inactive) and the GI50 (UACC-62) was > 100 µM (inactive). The GI50 (NCI-H23) was > 100 µM (inactive), the GI50 (NCI-H226) was > 73.1 µM (inactive) and the GI50 (OVCAR-4) was > 100 µM (inactive).
